Test [1] deals with Melanocyte-stimulating hormone receptor (Homo sapiens, UniProt Q01726). The test is described as follows: Inhibition of [125I]NDP-alpha-MSH binding to melanocortin-1 receptor expressed in HEK293 cells. Format: cell-based.
Test [2] concerns the target Melanocortin receptor 5 (Homo sapiens, UniProt P33032). The test is described as follows: Inhibition of [125I]NDP-alpha-MSH binding to melanocortin-5 receptor expressed in HEK293 cells. Type of test: cell-based.
Test [3] concerns the target T1, Melanocortin receptor 3 (Homo sapiens, UniProt P41968). Nature of the test: Inhibition of [125I]-NDP-alpha-MSH binding to melanocortin-3 receptor expressed in HEK293 cells. Format: cell-based.
Test [4] addresses T2, Melanocortin receptor 4 (Homo sapiens, UniProt P32245). The test is described as follows: Inhibition of [125I]NDP-alpha-MSH binding to melanocortin-4 receptor expressed in HEK293 cells. Type of test: cell-based.
Test [5] has as its target T2, Melanocortin receptor 4. Nature of the test: Agonist activity at human Melanocortin-4 receptor as peptide required for 50% maximal cAMP release (n > or =2). Format: functional.
Test [6] addresses Melanocortin receptor 4 (Rattus norvegicus, UniProt P70596). Nature of the test: Binding affinity for rat melanocortin-4 receptor.
Test [7] addresses T1, Melanocortin receptor 3. The test is described as follows: Agonist activity at human Melanocortin-3 receptor as peptide required for 50% maximal cAMP release. Type of test: functional.

Some results are limits rather than exact numbers.

For 17 compounds, Ki and EC50 results are on record in ChEMBL document CHEMBL1143618, “Discovery of a beta-MSH-derived MC-4R selective agonist” (J Med Chem, 2005).

T2 sequence (P32245 whole entry): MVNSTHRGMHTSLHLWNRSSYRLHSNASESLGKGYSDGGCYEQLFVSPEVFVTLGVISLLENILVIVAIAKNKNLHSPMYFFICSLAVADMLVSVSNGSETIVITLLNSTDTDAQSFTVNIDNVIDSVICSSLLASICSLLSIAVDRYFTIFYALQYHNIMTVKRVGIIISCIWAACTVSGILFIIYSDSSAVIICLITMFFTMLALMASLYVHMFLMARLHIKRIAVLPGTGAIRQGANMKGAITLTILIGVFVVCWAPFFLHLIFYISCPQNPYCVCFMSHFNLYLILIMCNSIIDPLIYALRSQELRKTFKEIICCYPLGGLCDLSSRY
T1 sequence (P41968 whole entry): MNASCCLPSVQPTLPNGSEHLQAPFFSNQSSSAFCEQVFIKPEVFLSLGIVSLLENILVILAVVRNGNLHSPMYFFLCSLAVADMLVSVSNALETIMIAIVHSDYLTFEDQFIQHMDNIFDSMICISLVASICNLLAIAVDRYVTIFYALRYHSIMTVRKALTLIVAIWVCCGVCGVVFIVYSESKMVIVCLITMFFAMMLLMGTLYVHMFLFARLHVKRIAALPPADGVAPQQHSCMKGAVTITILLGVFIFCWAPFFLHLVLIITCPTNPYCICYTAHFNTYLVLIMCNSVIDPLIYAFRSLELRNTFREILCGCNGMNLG
Melanocortin receptor 5, sequence (P33032 whole entry): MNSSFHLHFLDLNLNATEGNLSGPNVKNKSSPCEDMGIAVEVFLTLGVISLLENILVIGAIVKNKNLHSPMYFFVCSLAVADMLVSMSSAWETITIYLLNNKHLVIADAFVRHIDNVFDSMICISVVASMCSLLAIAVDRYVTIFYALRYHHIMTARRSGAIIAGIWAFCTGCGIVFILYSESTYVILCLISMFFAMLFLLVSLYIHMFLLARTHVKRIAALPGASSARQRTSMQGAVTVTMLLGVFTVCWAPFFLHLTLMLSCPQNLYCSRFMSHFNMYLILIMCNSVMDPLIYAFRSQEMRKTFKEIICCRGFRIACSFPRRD
Melanocyte-stimulating hormone receptor, sequence (Q01726 whole entry): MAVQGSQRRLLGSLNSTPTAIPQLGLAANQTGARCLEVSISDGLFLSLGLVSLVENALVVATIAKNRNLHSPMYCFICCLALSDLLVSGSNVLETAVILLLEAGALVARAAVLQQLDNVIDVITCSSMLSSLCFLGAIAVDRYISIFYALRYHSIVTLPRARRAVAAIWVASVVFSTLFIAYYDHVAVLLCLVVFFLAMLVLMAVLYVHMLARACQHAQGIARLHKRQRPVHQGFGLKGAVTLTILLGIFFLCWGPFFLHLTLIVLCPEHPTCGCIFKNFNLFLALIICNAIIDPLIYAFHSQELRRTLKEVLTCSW
Melanocortin receptor 4 (Rattus norvegicus, UniProt P70596), sequence (P70596 whole entry): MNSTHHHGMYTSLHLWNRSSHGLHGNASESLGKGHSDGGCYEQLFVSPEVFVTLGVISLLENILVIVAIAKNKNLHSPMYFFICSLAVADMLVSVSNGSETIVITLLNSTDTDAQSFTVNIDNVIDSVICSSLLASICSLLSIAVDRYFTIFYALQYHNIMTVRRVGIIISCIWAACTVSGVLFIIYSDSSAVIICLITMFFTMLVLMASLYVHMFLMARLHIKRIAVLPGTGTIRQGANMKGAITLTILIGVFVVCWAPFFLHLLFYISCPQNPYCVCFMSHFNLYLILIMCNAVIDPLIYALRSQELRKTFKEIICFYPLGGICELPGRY

As to `CC(=O)N[C@H]1CSSC[C@@H](C(N)=O)NC(=O)[C@H](Cc2c[nH]c3ccccc23)NC(=O)[C@H](CCCNC(=N)N)NC(=O)[C@@H](Cc2ccccc2)NC(=O)[C@H](Cc2c[nH]cn2)NC(=O)[C@H](CCC(=O)O)NC1=O`, the Ki was 67.1 nM in test [1] and over 500 nM in test [2].
Consider `CC(=O)N[C@@H](Cc1ccc(O)cc1)C(=O)N[C@@H](CCCNC(=N)N)C(=O)N[C@H]1CSSC[C@@H](C(N)=O)NC(=O)[C@H](Cc2c[nH]c3ccccc23)NC(=O)[C@H](CCCNC(=N)N)NC(=O)[C@@H](Cc2ccc(Cl)cc2)NC(=O)[C@H](Cc2c[nH]cn2)NC(=O)[C@H](CCC(=O)O)NC1=O`, for which the Ki in test [1] worked out at 8.22 nM; in test [3] it was 3.12 nM; in test [4] it was 0.14 nM; in test [2], 42.2 nM. Besides, the EC50 in test [5] was found to be 0.06 nM.
In the case of `CC(=O)N[C@@H](Cc1ccc(O)cc1)C(=O)N[C@@H](CCCNC(N)=O)C(=O)N[C@H]1CSSC[C@@H](C(N)=O)NC(=O)[C@H](Cc2c[nH]c3ccccc23)NC(=O)[C@H](CCCNC(=N)N)NC(=O)[C@@H](Cc2ccccc2)NC(=O)[C@H](Cc2c[nH]cn2)NC(=O)[C@H](CCC(=O)O)NC1=O`, the Ki in test [1] was 49.4 nM; in test [3], 313 nM; in test [4], 2.54 nM; in test [2], over 500 nM. In test [5], this compound showed an EC50 of 0.79 nM.
For `CC(=O)N[C@@H](Cc1ccc(O)cc1)C(=O)N[C@@H](CCCNC(=N)N)C(=O)N[C@H]1CSSC[C@@H](C(N)=O)NC(=O)[C@H](Cc2c[nH]c3ccccc23)NC(=O)[C@H](CCCNC(=N)N)NC(=O)[C@@H](Cc2ccccc2)NC(=O)[C@H](Cc2c[nH]cn2)NC(=O)[C@H](CCC(=O)O)NC1=O`, the Ki is 0.52 nM in test [6], 17.1 nM in test [1], 0.77 nM in test [4] and over 500 nM in test [2]. This compound came in with an EC50 in test [5] of 0.27 nM.
`CSC[C@H](NC(=O)[C@H](Cc1c[nH]c2ccccc12)NC(=O)[C@H](CCCNC(=N)N)NC(=O)[C@@H](Cc1ccccc1)NC(=O)[C@H](Cc1cnc[nH]1)NC(=O)[C@H](CCC(=O)O)NC(=O)[C@H](CSC)NC(=O)[C@H](CCCNC(=N)N)NC(=O)[C@H](Cc1ccc(O)cc1)NC(C)=O)C(N)=O`: the Ki in test [1] is 2.73 nM; in test [3], 166 nM; in test [4], 13.2 nM; in test [2], 62.1 nM. For the same compound, the midpoint of the response in test [5], the EC50, lay at 0.92 nM.
With `CC(=O)N[C@@H](Cc1ccc(O)cc1)C(=O)N[C@@H](CCCCN)C(=O)N[C@H]1CSSC[C@@H](C(N)=O)NC(=O)[C@H](Cc2c[nH]c3ccccc23)NC(=O)[C@H](CCCNC(=N)N)NC(=O)[C@@H](Cc2ccccc2)NC(=O)[C@H](Cc2c[nH]cn2)NC(=O)[C@H](CCC(=O)O)NC1=O`, the Ki was 15.8 nM in test [1], 1.22 nM in test [4] and over 500 nM in test [2]. In test [5], this compound returned an EC50 of 0.1 nM.
For the compound `CSCC[C@H](NC(=O)[C@H](CCCN=C(N)N)NC(=O)[C@H](Cc1ccc(O)cc1)NC(=O)[C@@H]1CCCN1C(=O)CNC(=O)[C@H](CCC(=O)O)NC(=O)[C@H](CC(=O)O)NC(=O)[C@H](CCCCN)NC(=O)[C@H](CCCCN)NC(=O)[C@H](CCC(=O)O)NC(=O)[C@H](C)N)C(=O)N[C@@H](CCC(=O)O)C(=O)N[C@@H](Cc1c[nH]cn1)C(=O)N[C@@H](Cc1ccccc1)C(=O)N[C@@H](CCCN=C(N)N)C(=O)N[C@@H](Cc1c[nH]c2ccccc12)C(=O)NCC(=O)N[C@@H](CO)C(=O)N1CCC[C@H]1C(=O)N1CCC[C@H]1C(=O)N[C@@H](CCCCN)C(=O)N[C@@H](CC(=O)O)C(=O)O`, the Ki in test [1] was 0.89 nM; in test [3] it was 10.6 nM; in test [2], 76.9 nM.
On to `CC(=O)N[C@@H](CCCNC(=N)N)C(=O)N[C@H]1CSSC[C@@H](C(N)=O)NC(=O)[C@H](Cc2c[nH]c3ccccc23)NC(=O)[C@H](CCCNC(=N)N)NC(=O)[C@@H](Cc2ccccc2)NC(=O)[C@H](Cc2c[nH]cn2)NC(=O)[C@H](CCC(=O)O)NC1=O`, for which the Ki is 10.3 nM in test [1], 33.8 nM in test [3] and over 500 nM in test [2]. Besides, the response in test [7] was half-maximal at 0.68 nM (EC50).
Consider `CC(=O)N[C@H](CCCNC(=N)N)C(=O)N[C@H]1CSSC[C@@H](C(N)=O)NC(=O)[C@H](Cc2c[nH]c3ccccc23)NC(=O)[C@H](CCCNC(=N)N)NC(=O)[C@@H](Cc2ccccc2)NC(=O)[C@H](Cc2c[nH]cn2)NC(=O)[C@H](CCC(=O)O)NC1=O`, for which the Ki is 0.39 nM in test [6], 16.8 nM in test [1], 56.8 nM in test [3] and over 500 nM in test [2]. In test [7], this compound gave an EC50 of 1.61 nM.
On to `CC(=O)N[C@@H](Cc1ccc(O)cc1)C(=O)N[C@@H](CCCN=C(N)N)C(=O)N[C@H]1CSSC[C@@H](C(N)=O)NC(=O)[C@H](Cc2c[nH]c3ccccc23)NC(=O)[C@H](CCCN=C(N)N)NC(=O)[C@H](Cc2ccccc2)NC(=O)[C@H](Cc2c[nH]cn2)NC(=O)[C@H](CCC(=O)O)NC1=O`, for which the Ki was 147 nM in test [1], over 500 nM in test [3], 30.5 nM in test [4] and over 500 nM in test [2]. The compound further yielded an EC50 in test [5] of 5.24 nM.
Regarding `CSCC[C@H](NC(=O)[C@H](CCCNC(=N)N)NC(=O)[C@H](Cc1ccc(O)cc1)NC(C)=O)C(=O)N[C@@H](CCC(=O)O)C(=O)N[C@@H](Cc1cnc[nH]1)C(=O)N[C@H](Cc1ccccc1)C(=O)N[C@@H](CCCNC(=N)N)C(=O)N[C@@H](Cc1c[nH]c2ccccc12)C(=O)NCC(=O)N[C@@H](CO)C(=O)N1CCC[C@H]1C(=O)N1CCC[C@H]1C(=O)N[C@@H](CCCCN)C(=O)N[C@@H](CC(=O)O)C(N)=O`, the Ki in test [1] turned out to be 0.09 nM; in test [3], 0.11 nM; in test [4] it was 0.27 nM; in test [2], 0.26 nM. The same compound showed an EC50 in test [5] of 0.56 nM.
The like results for `CC(=O)N[C@@H](Cc1ccc(O)cc1)C(=O)N[C@@H](CCCN=C(N)N)C(=O)N[C@H]1CSSC[C@@H](C(N)=O)NC(=O)[C@H](Cc2c[nH]c3ccccc23)NC(=O)[C@H](CCCN=C(N)N)NC(=O)[C@@H](Cc2ccc3ccccc3c2)NC(=O)[C@H](Cc2c[nH]cn2)NC(=O)[C@H](CCC(=O)O)NC1=O` were, in that order, 121 nM, 6.84 nM, 0.3 nM, 37.8 nM and 0.65 nM.
In the case of `CC(=O)N[C@@H](Cc1ccc(O)cc1)C(=O)N[C@@H](CCCNC(=N)N)C(=O)N[C@H]1CSSC[C@@H](C(N)=O)NC(=O)[C@H](Cc2c[nH]c3ccccc23)NC(=O)[C@H](CCCNC(=N)N)NC(=O)[C@@H](Cc2ccccc2)NC(=O)[C@H](Cc2cncn2C)NC(=O)[C@H](CCC(=O)O)NC1=O`, the Ki in test [1] is over 500 nM; in test [3], over 500 nM; in test [4], 6.6 nM; in test [2], over 500 nM. Also, in test [5], the EC50 stood at 0.54 nM.
For `CSCC[C@H](NC(=O)[C@H](CCCNC(=N)N)NC(=O)[C@H](Cc1ccc(O)cc1)NC(C)=O)C(=O)N[C@@H](CCC(=O)O)C(=O)N[C@@H](Cc1cnc[nH]1)C(=O)N[C@H](Cc1ccccc1)C(=O)N[C@@H](CCCNC(=N)N)C(=O)N[C@@H](Cc1c[nH]c2ccccc12)C(=O)NCC(N)=O`, the Ki was found to be 0.21 nM in test [1], 1.44 nM in test [3], 0.55 nM in test [4] and 0.84 nM in test [2]. Moreover, the EC50 in test [5] turned out to be 0.16 nM.
In the same order, the values of `CC(=O)N[C@@H](Cc1ccc(O)cc1)C(=O)N[C@@H](CCCNC(=N)N)C(=O)N[C@H]1CSSC[C@@H](C(N)=O)NC(=O)[C@H](Cc2c[nH]c3ccccc23)NC(=O)[C@H](CCCNC(=N)N)NC(=O)[C@@H](Cc2ccc(F)cc2)NC(=O)[C@H](Cc2c[nH]cn2)NC(=O)[C@H](CCC(=O)O)NC1=O` are 9.91 nM, 15.9 nM, 0.28 nM, 239 nM and 0.12 nM.
Consider H-GPYRMEHFRWGSPPKD-NH2, for which the Ki turned out to be 0.51 nM in test [1], 9.23 nM in test [3], 5.28 nM in test [4] and 24.8 nM in test [2]. Moreover, it took 0.67 nM to reach a half-maximal effect in test [5] (EC50).
In the same order, the values of `CC(=O)N[C@@H](Cc1ccc(O)cc1)C(=O)N[C@@H](CCCN=C(N)N)C(=O)N[C@H]1CSSC[C@@H](C(=O)N[C@@H](CO)C(=O)N2CCC[C@H]2C(=O)N2CCC[C@H]2C(=O)N[C@@H](CCCCN)C(=O)N[C@@H](CC(=O)O)C(N)=O)NC(=O)[C@H](Cc2c[nH]c3ccccc23)NC(=O)[C@H](CCCN=C(N)N)NC(=O)[C@@H](Cc2ccccc2)NC(=O)[C@H](Cc2c[nH]cn2)NC(=O)[C@H](CCC(=O)O)NC1=O` are 0.57 nM, 7.91 nM, 0.52 nM, over 500 nM and 0.24 nM.

For orientation: Ki means a measure of affinity in units of concentration, obtained from inhibition or displacement. A high value points to lower affinity. By EC50 is commonly meant the midpoint of the concentration-response curve.
